Test results from US20120202877A1 (priority 2009, published 2012).

Columns and labels:
[1] = molecular target: influenza A virus N1 sialidase [A/HongKong/156/97 (H5N1)] wild type (Influenza A virus, UniProt Q9W7Y7); experiment: biochemical
[2] = test system: A/Paris/0497/2007 (H1N1, H274); experiment: microbe, parasite or virus in culture; format: cell-based, influenza virus; conditions: for EC50: Influenza A virus, H1N1, 72 h, read-out: EC50, 50% reduction of the average plaque diameter
[3] = molecular target: influenza A virus N2 sialidase [A/Paris/908/97 (H3N2)] (Influenza A virus, UniProt Q9EA36); format: biochemical
[4] = test system: A/Paris/908/97 (H3N2); experiment: microbe, parasite or virus in culture; format: cell-based, influenza virus; conditions: for EC50: Influenza A virus, H3N2, 72 h, read-out: EC50, 50% reduction of the average plaque diameter

Compound	Ki [1] [µM]	EC50 [2] [µM]	Ki [3] [µM]	EC50 [4] [µM]	change in plaque size [2]	change in plaque size [4]
CC(=O)N[C@H]1[C@H]([C@H](O)[C@H](O)CO)OC(C(=O)O)=C[C@@H]1O [Neu5Ac2en, reference compound]	0.97 ± 0.15	20	1.24 ± 0.23	20		
CC(=O)NC1C(O)C(CC=Cc2ccc(C)cc2)=C(C(=O)O)OC1C(O)C(O)CO (stereo not shown) [Compound 9d]		80		> 1000	significant decrease in plaque size	little or no visible difference in plaque size
C=CCC1=C(C(=O)O)O[C@@H]([C@H](O)[C@H](O)CO)[C@H](NC(C)=O)[C@H]1O [Compound 7, 5-Acetamido-2,6-anhydro-3,5-dideoxy-3-C-(prop-2′-enyl)-D-glycero-D-galacto-non-2-en-onic acid]		1800		> 5000		
